From PMC5676022, “Pyrrolyl Pyrazoline Carbaldehydes as Enoyl-ACP Reductase Inhibitors: Design, Synthesis and Antitubercular Activity” (The Open Medicinal Chemistry Journal, 2017)
In brackets after ≈: the same amount, converted by molar mass.

Columns and labels:
[1] = system: M. tuberculosis H37Rv; experiment: Microplate alamar blue assay (MABA), antitubercular activity; type: cell-based, Mycobacterium tuberculosis; settings: 5 days at 37 C, lowest concentration preventing colour change blue to pink; for MIC: Mycobacterium tuberculosis, H37RV, 120 h
[2] = system: human lung cancer cell line A549; experiment: MTT-based cytotoxicity assay; type: cell-based; settings: for cytotoxicity towards A549 (in words): A549, up to 100 µg/mL, compared to paclitaxel; for IC50: Homo sapiens, A549, MTT, up to 100 µg/mL, average of three independent experiments
Method: Cellular conversion of MTT [3-(4,5-dimethylthiazo-2-yl)-2,5-diphenyl-tetrazolium bromide] into a formazan product was used to estimate cytotoxic activity (IC50) of some of the compounds against cell-line A549 (lung adenocarcinoma) up to concentrations of 100 µg/mL using 5×10^3cells/well in a 96-well flat-bottom micro plate and maintained at 37 °C in 95% humidity and 5% CO2 for overnight using paclitaxel as the positive control.
Certain therapeutic properties are to be determined to examine the antimycobacterial potential of a drug. Toxicity is one of these criteria.

Structure (SMILES) | melting point | MIC [1] | cytotoxicity towards A549 (in words) [2] | IC50 [2] | MIC values M. tuberculosis H37Rv [1]
O=CN1N=C(c2ccc(-n3cccc3)cc2)CC1c1ccccc1 (stereo not shown) [Compound 4a, 3-(4-(1H-Pyrrol-1-yl) Phenyl)-5-Phenyl-4,5-Dihydro-1H-Pyrazole-1-Carbaldehydes] | 178 to 180 °C | 100 µg/mL (≈ 317 µM) |  |  | 
O=CN1N=C(c2ccc(-n3cccc3)cc2)CC1c1ccc(Cl)cc1 (stereo not shown) [Compound 4b, (4-(1H-Pyrrol-1-yl) Phenyl)-5-(4-Chlorophenyl)-4,5-Dihydro-1H-Pyrazole-1-Carbaldehyde] | 168 to 170 °C | 12.5 µg/mL (≈ 35.7 µM) | moderate cytotoxicity | 75.6 µg/mL (≈ 216 µM) | 
O=CN1N=C(c2ccc(-n3cccc3)cc2)CC1c1cccc(Cl)c1Cl (stereo not shown) [Compound 4c, (4-(1H-pyrrol-1-yl)phenyl)-5-(2,3-Dichlorophenyl)-4,5-Dihydro-1H-Pyrazole-1-Carbaldehyde] | 163 to 165 °C | 12.5 µg/mL (≈ 32.5 µM) |  |  | 
O=CN1N=C(c2ccc(-n3cccc3)cc2)CC1c1ccc(Cl)cc1Cl (stereo not shown) [Compound 4d, (4-(1H-pyrrol-1-yl)Phenyl)-5-(2,4-Dichlorophenyl)-4,5-Dihydro-1H-Pyrazole-1-Carbaldehyde] | 228 to 230 °C | 25 µg/mL (≈ 65.1 µM) |  |  | 
O=CN1N=C(c2ccc(-n3cccc3)cc2)CC1c1c(Cl)cccc1Cl (stereo not shown) [Compound 4e, (4-(1H-pyrrol-1-yl)Phenyl)-5-(2,6-Dichlorophenyl)-4,5-Dihydro-1H-Pyrazole-1-Carbaldehyde] | 208 to 210 °C | 25 µg/mL (≈ 65.1 µM) |  |  | 
Cc1ccc(C2CC(c3ccc(-n4cccc4)cc3)=NN2C=O)cc1 (stereo not shown) [Compound 4f, (4-(1H-pyrrol-1-yl)Phenyl)-5-(p-Tolyl)-4,5-Dihydro-1H-Pyrazole-1-Carbaldehyde] | 148 to 150 °C | 25 µg/mL (≈ 75.9 µM) |  |  | 
COc1ccc(C2CC(c3ccc(-n4cccc4)cc3)=NN2C=O)cc1 (stereo not shown) [Compound 4g, (4-(1H-pyrrol-1-yl)phenyl)-5-(4-Methoxyphenyl)-4,5-Dihydro-1H-Pyrazole-1-Carbaldehyde] | 112 to 114 °C | 6.25 µg/mL (≈ 18.1 µM) |  |  | 6.25 µg/mL (≈ 18.1 µM)
COc1cccc(C2CC(c3ccc(-n4cccc4)cc3)=NN2C=O)c1 (stereo not shown) [Compound 4h, (4-(1H-Pyrrol-1-yl)Phenyl)-5-(3-Methoxyphenyl)-4,5-Dihydro-1H-Pyrazole-1-Carbaldehyde] | 158 to 160 °C | 6.25 µg/mL (≈ 18.1 µM) | moderate cytotoxicity | 76.5 µg/mL (≈ 222 µM) | 6.25 µg/mL (≈ 18.1 µM)
COc1ccc(C2CC(c3ccc(-n4cccc4)cc3)=NN2C=O)c(OC)c1 (stereo not shown) [Compound 4i, (4-(1H-Pyrrol-1-yl)Phenyl)-5-(2,4-Dimethoxyphenyl)-4,5-Dihydro-1H-Pyrazole-1-Carbaldehyde] | 160 to 162 °C | 3.12 µg/mL (≈ 8.32 µM) | moderate cytotoxicity | 73.3 µg/mL (≈ 195 µM) | 3.125 µg/mL (≈ 8.32 µM)
COc1ccc(C2CC(c3ccc(-n4cccc4)cc3)=NN2C=O)cc1OC (stereo not shown) [Compound 4j, (4-(1H-Pyrrol-1-yl) Phenyl)-5-(3,4-Dimethoxyphenyl)-4,5-Dihydro-1H-Pyrazole-1-Carbaldehyde] | 133 to 135 °C | 12.5 µg/mL (≈ 33.3 µM) | moderate cytotoxicity | 70.4 µg/mL (≈ 187 µM) | 
O=CN1N=C(c2ccc(-n3cccc3)cc2)CC1c1ccc(F)cc1 (stereo not shown) [Compound 4k, (4-(1H-Pyrrol-1-yl)phenyl)-5-(4-Fluorophenyl)-4,5-Dihydro-1H-Pyrazole-1-Carbaldehyde] |  | 12.5 µg/mL (≈ 37.5 µM) |  |  | 
CC(C)c1ccc(C2CC(c3ccc(-n4cccc4)cc3)=NN2C=O)cc1 (stereo not shown) [Compound 4l, (4-(1H-Pyrrol-1-yl)Phenyl)-5-(4-Isopropylphenyl)-4,5-Dihydro-1H-Pyrazole-1-Carbaldehyde] | 140 to 142 °C | 100 µg/mL (≈ 280 µM) | moderate cytotoxicity | 71.1 µg/mL (≈ 199 µM) | 
O=CN1N=C(c2ccc(-n3cccc3)cc2)CC1c1cccc(Br)c1 (stereo not shown) [Compound 4m, (4-(1H-Pyrrol-1-yl)Phenyl)-5-(3-Bromophenyl)-4,5-Dihydro-1H-Pyrazole-1-Carbaldehyde] | 168 to 170 °C | 12.5 µg/mL (≈ 31.7 µM) | moderate cytotoxicity | 76 µg/mL (≈ 193 µM) | 
O=CN1N=C(c2ccc(-n3cccc3)cc2)CC1c1cccc(Oc2ccccc2)c1 (stereo not shown) [Compound 4n, (4-(1H-pyrrol-1-yl)Phenyl)-5-(3-Phenoxyphenyl)-4,5-Dihydro-1H-Pyrazole-1-Carbaldehyde] | 128 to 130 °C | 12.5 µg/mL (≈ 30.7 µM) | moderate cytotoxicity | 72.9 µg/mL (≈ 179 µM) | 
O=CN1N=C(c2ccc(-n3cccc3)cc2)CC1c1ccco1 (stereo not shown) [Compound 4o, (4-(1H-Pyrrol-1-yl)phenyl)-5-(Furan-2-yl)-4,5-Dihydro-1H-pyrazole-1-Carbaldehyde] | 152 to 154 °C | 50 µg/mL (≈ 164 µM) |  |  | 
CC(=O)O[C@H]1C(=O)[C@@]2(C)[C@H]([C@H](OC(=O)c3ccccc3)[C@]3(O)C[C@H](OC(=O)[C@H](O)[C@@H](NC(=O)c4ccccc4)c4ccccc4)C(C)=C1C3(C)C)[C@]1(OC(C)=O)CO[C@@H]1C[C@@H]2O [paclitaxel, reference compound] |  |  |  | 47.6 µg/mL (≈ 55.8 µM) | 
NC(=O)c1cnccn1 [pyrazinamide, reference compound] |  | 3.12 µg/mL (≈ 25.4 µM) |  |  | 
[H]/N=C(/N)N[C@H]1[C@H](O)[C@@H](O)[C@H](O[C@@H]2O[C@@H](C)[C@](O)(C=O)[C@H]2O[C@@H]2O[C@@H](CO)[C@H](O)[C@@H](O)[C@@H]2NC)[C@@H](N/C(N)=N\[H])[C@@H]1O [streptomycin, reference compound] |  | 6.25 µg/mL (≈ 10.7 µM) |  |  | 
